Source: patent publication US5708169A, “5-amidomethyl α,β-saturated and -unsaturated 3-aryl butyrolactone antibacterial agents” (Pharmacia & Upjohn Company, priority 1996, dated 1998)
Values after ≈ are worked out from the molar mass of the structure shown. Where two headings read alike, the source gives them in different places.

Assays:
[1] = tested on: Staphylococcus Pneumoniae 9912; assay: MIC by agar dilution (NCCLS), Streptococcus pneumoniae 9912; format: cell-based; conditions: S. pneumoniae 9912
Protocol: (§1) The saturated and unsaturated 3-aryl butyrolactone compounds of the present invention have useful activity against a variety of organisms. The in vitro activity of compounds of the present invention are assessed by standard testing procedures such as the determination of minimum inhibitory concentration (MIC) by agar dilution as described in "Methods for Dilution Antimicrobial Susceptiblity Tests for Bacteria That Grow Aerobically" (MFT) published January 1993 by the National Committee for Clinical Laboratory Standards. (NCCLS), 771 East Lancaster Avenue, Villanova, Pa. 19084 USA. The activity of selected compounds of the present invention against Staphylococcus aureus and Streptococcus pneumoniae are shown in Table 1.

[2] = tested on: Staphylococcus Aureus 9213; assay: MIC by agar dilution (NCCLS), Staphylococcus aureus 9213; format: cell-based
Protocol: as §1

S. aureus UC9213 = assay: Murine Assay, in vivo antimicrobial activity (ED50, survival); set-up: species or system Staphylococcus aureus (infected female mice); conditions: Staphylococcus aureus, 144 h, read-out: ED50 (S. aureus UC9213, sq)
Protocol: Antimicrobial activity was tested in vivo using the Murine Assay procedure. Groups of female mice (six mice of 18-20 grams each) are injected intraperitoneally with bacteria which is thawed just prior to use and suspended in brain heart infusion with 4% brewer's yeast (Staphylococcus aureus) or brain heart infusion (Streptococcus species). Antibiotic treatment at six dose levels per drug is administered one hour and five hours after infection by either oral intubation or subcutaneous routes. Survival is observed daily for six days. ED50 values based on mortality ratios are calculated using probit analysis. The subject compounds are compared against well-known antimicrobials as controls.

| MIC [1] [µg/mL] | MIC ([2]; AUREUS9213, agar dilution, S. aureus 9213, read-out: MIC Staphylococcus Aureus 9213) [µg/mL] | Compound | ED50 (S. aureus UC9213; infected ip, mice infected i.p. with S. aureus UC9213, sq treatment 1 h and 5 h after infection, survival six days, probit analysis) [mg/kg] | MIC ([2]; AUREUS9213, read-out: Vancomycin MIC) [µg/mL] | ED50 (S. aureus UC9213; UC9213, infected ip) [mg/kg] |
| --- | --- | --- | --- | --- | --- |
| < 0.5 | 2 (≈ 5.47 µM) | COc1ccc(-c2ccc(C3=CC(CNC(C)=O)OC3=O)cc2)ccc1=O (centres unmarked) [Example 1, Acetamide, N-[[4-[4-[4-(2-methoxy)-5-oxo-1,3,6-cycloheptatrien-1-yl]phenyl]-2,5-dihydro-5-oxo-2-furanyl]methyl]-] | 9.3 | – | – |
| – | – | CN[C@H](CC(C)C)C(=O)N[C@H]1C(=O)N[C@@H](CC(N)=O)C(=O)N[C@H]2C(=O)N[C@H]3C(=O)N[C@H](C(=O)N[C@H](C(=O)O)c4cc(O)cc(O)c4-c4cc3ccc4O)[C@H](O)c3ccc(c(Cl)c3)Oc3cc2cc(c3O[C@@H]2O[C@H](CO)[C@@H](O)[C@H](O)[C@H]2O[C@H]2C[C@](C)(N)[C@H](O)[C@H](C)O2)Oc2ccc(cc2Cl)[C@H]1O [Vancomycin, reference compound] | – | 1 (≈ 0.69 µM) | 1.9 |
